Test results reported in ChEMBL document CHEMBL1201862, “PubChem BioAssay data set” (2004).
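Test compounds were applied to cells in 96-well plates for 48 hours at 5 doses. GI50 = concentration required for 50% inhibition of growth.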 Calls of active or inactive are those of the source. Rule as the data show it: active = GI50 up to about 1.1 µM and inactive = higher.

Key:
Assay in all cases: DTP human tumour cell line panel, 48 h
[1] = tested on: HCT-15
[2] = tested on: SF-539
[3] = tested on: PC-3
[4] = tested on: ACHN
[5] = tested on: CCRF-CEM
[6] = tested on: TK-10
[7] = tested on: CAKI-1
[8] = tested on: HOP-92
[9] = tested on: LOX IMVI
[10] = tested on: RXF 393
[11] = tested on: OVCAR-4
[12] = tested on: OVCAR-8
[13] = tested on: MDA-MB-435
[14] = tested on: HOP-62
[15] = tested on: MDA-MB-231
[16] = tested on: HL-60
[17] = tested on: A498
[18] = tested on: SK-MEL-5
[19] = tested on: SNB-19
[20] = tested on: SF-295
[21] = tested on: SK-MEL-2
[22] = tested on: UACC-257
[23] = tested on: NCI/ADR-RES
[24] = tested on: SK-OV-3
[25] = tested on: Hs-578T
[26] = tested on: NCI-H226
[27] = tested on: HCC 2998
[28] = tested on: T47D
[29] = tested on: UACC-62
[30] = tested on: MCF7
[31] = tested on: HT-29
[32] = tested on: UO-31
[33] = tested on: U-251
[34] = tested on: M14
[35] = tested on: NCI-H23
[36] = tested on: OVCAR-5
[37] = tested on: KM12
[38] = tested on: OVCAR-3
[39] = tested on: MDA-N
[40] = tested on: SNB-75
[41] = tested on: RPMI-8226
[42] = tested on: NCI-H460
[43] = tested on: A549
[44] = tested on: SW-620
[45] = tested on: COLO 205
[46] = tested on: MOLT-4
[47] = tested on: K562
[48] = tested on: IGROV-1
[49] = tested on: SF-268
[50] = tested on: SR
[51] = tested on: EKVX
[52] = tested on: DU-145
[53] = tested on: SK-MEL-28
[54] = tested on: SN12C
[55] = tested on: HCT-116
[56] = tested on: NCI-H522
[57] = tested on: BT-549
[58] = tested on: 786-0
[59] = tested on: Malme-3M

## CCOC(=O)c1csc(NC(=O)CN2CCCC2)n1
[1]
  GI50: > 100 µM
[2]
  GI50: > 100 µM (inactive)
[3]
  GI50: > 100 µM (inactive)
[4]
  GI50: > 100 µM (inactive)
[5]
  GI50: > 100 µM (inactive)
[6]
  GI50: > 100 µM (inactive)
[7]
  GI50: > 100 µM (inactive)
[8]
  GI50: > 100 µM (inactive)
[9]
  GI50: > 100 µM (inactive)
[10]
  GI50: > 100 µM (inactive)
[11]
  GI50: > 100 µM (inactive)
[12]
  GI50: > 100 µM (inactive)
[13]
  GI50: > 100 µM (inactive)
[14]
  GI50: > 100 µM (inactive)
[15]
  GI50: > 100 µM (inactive)
[16]
  GI50: > 100 µM (inactive)
[17]
  GI50: > 100 µM (inactive)
[18]
  GI50: > 100 µM (inactive)
[19]
  GI50: > 100 µM (inactive)
[20]
  GI50: > 100 µM (inactive)
[21]
  GI50: > 100 µM (inactive)
[22]
  GI50: > 100 µM (inactive)
[23]
  GI50: > 100 µM (inactive)
[24]
  GI50: > 100 µM (inactive)
[25]
  GI50: > 100 µM (inactive)
[26]
  GI50: > 100 µM (inactive)
[27]
  GI50: > 100 µM (inactive)
[28]
  GI50: > 100 µM (inactive)
[29]
  GI50: > 100 µM (inactive)
[30]
  GI50: > 100 µM (inactive)
[31]
  GI50: > 100 µM (inactive)
[32]
  GI50: > 100 µM (inactive)
[33]
  GI50: > 100 µM (inactive)
[34]
  GI50: > 100 µM (inactive)
[35]
  GI50: > 100 µM (inactive)
[36]
  GI50: > 100 µM (inactive)
[37]
  GI50: > 100 µM (inactive)
[38]
  GI50: > 100 µM (inactive)
[39]
  GI50: > 100 µM (inactive)
[40]
  GI50: > 100 µM (inactive)
[41]
  GI50: > 100 µM (inactive)
[42]
  GI50: > 100 µM (inactive)
[43]
  GI50: > 100 µM (inactive)
[44]
  GI50: > 100 µM (inactive)
[45]
  GI50: > 100 µM (inactive)
[46]
  GI50: > 100 µM (inactive)
[47]
  GI50: > 100 µM (inactive)
[48]
  GI50: > 100 µM (inactive)
[49]
  GI50: > 100 µM (inactive)
[50]
  GI50: > 100 µM (inactive)
[51]
  GI50: > 100 µM (inactive)
[52]
  GI50: > 100 µM (inactive)
[53]
  GI50: > 100 µM (inactive)

## CCOC(=O)C1OC(=O)CC1C1(C(=O)OCC)C=CC(=O)O1 (configuration not stated)
[1]
  GI50: > 100 µM
[2]
  GI50: > 100 µM (inactive)
[3]
  GI50: > 100 µM (inactive)
[54]
  GI50: > 100 µM (inactive)
[4]
  GI50: > 100 µM (inactive)
[5]
  GI50: 59.7 µM (inactive)
[6]
  GI50: > 100 µM (inactive)
[7]
  GI50: > 100 µM (inactive)
[55]
  GI50: > 100 µM (inactive)
[8]
  GI50: > 100 µM (inactive)
[9]
  GI50: 14.2 µM (inactive)
[10]
  GI50: > 100 µM (inactive)
[11]
  GI50: > 100 µM (inactive)
[12]
  GI50: > 100 µM (inactive)
[14]
  GI50: > 100 µM (inactive)
[56]
  GI50: > 100 µM (inactive)
[16]
  GI50: 42 µM (inactive)
[18]
  GI50: > 100 µM (inactive)
[19]
  GI50: > 100 µM (inactive)
[20]
  GI50: > 100 µM (inactive)
[21]
  GI50: > 100 µM (inactive)
[22]
  GI50: > 100 µM (inactive)
[23]
  GI50: > 100 µM (inactive)
[24]
  GI50: > 100 µM (inactive)
[26]
  GI50: > 100 µM (inactive)
[27]
  GI50: > 100 µM (inactive)
[29]
  GI50: > 100 µM (inactive)
[30]
  GI50: > 100 µM (inactive)
[31]
  GI50: > 100 µM (inactive)
[32]
  GI50: > 100 µM (inactive)
[33]
  GI50: 93.8 µM (inactive)
[34]
  GI50: > 100 µM (inactive)
[35]
  GI50: > 100 µM (inactive)
[36]
  GI50: > 100 µM (inactive)
[37]
  GI50: > 100 µM (inactive)
[38]
  GI50: > 100 µM (inactive)
[57]
  GI50: > 100 µM (inactive)
[39]
  GI50: > 100 µM (inactive)
[40]
  GI50: > 100 µM (inactive)
[41]
  GI50: > 100 µM (inactive)
[42]
  GI50: 17.9 µM (inactive)
[43]
  GI50: > 100 µM (inactive)
[44]
  GI50: > 100 µM (inactive)
[45]
  GI50: > 100 µM (inactive)
[46]
  GI50: > 100 µM (inactive)
[47]
  GI50: > 100 µM (inactive)
[58]
  GI50: > 100 µM (inactive)
[48]
  GI50: > 100 µM (inactive)
[49]
  GI50: > 100 µM (inactive)
[50]
  GI50: > 100 µM (inactive)
[51]
  GI50: > 100 µM (inactive)
[52]
  GI50: > 100 µM (inactive)
[59]
  GI50: > 100 µM (inactive)
[53]
  GI50: > 100 µM (inactive)
